From patent publication US7141564B2, “Nitrogen-containing bicyclic heterocycles for use as antibacterials” (priority 2001, dated 2006)
Structures can show the parent of a compound that is named as a salt.

Test system: S. aureus WCUH29, S. pneumoniae 1629, H. influenzae ATCC 51907, M. catarrhalis Ravisio
Assay: MIC of further test compounds against an alternative selection of organisms
Type: cell-based
Details: versus all these organisms (alternative panel of 4 strains)
Description: The MIC […] of further test compounds against an alternative selection of organisms was determined: S. aureus WCUH29, S. pneumoniae 1629, H. influenzae ATCC 51907, M. catarrhalis Ravisio.

Compound | MIC
CCc1cc2c(nc1CN[C@H]1CC[C@](O)(C(=O)Nc3ccnc4ccc(OC)nc34)CC1)NC(=O)CS2 [Example 311, 1-Hydroxy-t-4-[(7-ethyl-3-oxo-3,4-dihydro-2H-pyrido[3,2-b][1,4]thiazin-6-ylmethyl)-amino]-r-cyclohexanecarboxylic acid (6-methoxy-[1,5]naphthyridin-4-yl)-amide dihydrochloride] | ≤ 16 µg/mL

Test system: not listed separately
Assay: MIC of test compounds against various organisms
Type: cell-based
Details: not given

Compound | MIC
COc1ccc2nccc(NC(=O)[C@H]3CC[C@H](NCc4ccc5c(c4)NC(=O)CS5)CC3)c2c1 [Example 28, Trans 4-[(3-Oxo-3,4-dihydro-2-H-benzo[1,4]thiazin-6-ylmethyl)-amino]-cyclohexanecarboxylic acid (6-methoxy-quinolin-4-yl)-amide] | ≤ 4 µg/mL

Same assay, conditions: versus all these organisms (panel of 10 strains); read-out: MIC

Compound | MIC
COc1ccc2nccc(NC(=O)[C@H]3CC[C@H](NCc4ccc5c(n4)OCCO5)CC3)c2n1 [Example 18, Trans-4-[(2,3-Dihydro-[1,4]dioxino[2,3-b]pyridin-6-ylmethyl)-amino]-cyclohexanecarboxylic acid (6-methoxy-[1,5]naphthyridin-4-yl)-amide oxalate salt] | ≤ 64 µg/mL
COc1ccc2nccc(NC(=O)[C@H]3CC[C@H](NCc4cc5c(cn4)OCCO5)CC3)c2n1 [Example 19, Trans-4-[(2,3-Dihydro-[1,4]dioxino[2,3-c]pyridin-7-ylmethyl)-amino]-cyclohexanecarboxylic acid (6-methoxy-[1,5]naphthyridin-4-yl)-amide oxalate salt] | ≤ 4 µg/mL
COc1ccc2nccc(NC(=O)[C@H]3CC[C@H](NCc4cnc5c(c4)OCCO5)CC3)c2n1 [Example 20, Trans-4-[(2,3-Dihydro-[1,4]dioxino[2,3-b]pyridin-7-ylmethyl)-amino]-cyclohexanecarboxylic acid (6-methoxy-[1,5]naphthyridin-4-yl)-amide oxalate salt] | ≤ 4 µg/mL
COc1ccc2nccc(C(O)C[C@H]3CC[C@H](NCc4ccc5c(c4)NC(=O)CS5)CC3)c2c1 (stereo partly drawn) [Example 21, Trans-6-({4-[2-Hydroxy-2-(6-methoxy-quinolin-4-yl)-ethyl]-cyclohexylamino}-methyl)-4-H-benzo[1,4]thiazin-3-one oxalate salt] | ≤ 4 µg/mL
COc1ccc2nccc(C(O)C[C@H]3CC[C@H](NCc4ccc5c(c4)OCCO5)CC3)c2c1 (stereo partly drawn) [Example 22, Trans-2-{4-[(2,3-Dihydro-benzo[1,4]dioxin-6-ylmethyl)-amino]-cyclohexyl}-1-(6-methoxy-quinolin-4-yl)-ethanol oxalate salt] | ≤ 16 µg/mL
COc1ccc2nccc(NC(=O)[C@H]3CC[C@H](NCc4cc5c(cc4[N+](=O)[O-])OCO5)CC3)c2n1.O=C(O)C(=O)O [Example 23, Trans-4-[(6-Nitro-benzo[1,3]dioxol-5-ylmethyl)-amino]-cyclohexanecarboxylic acid (6-methoxy-[1,5]naphthyridin-4-yl)-amide oxalate salt] | ≤ 4 µg/mL
COc1ccc2nccc(NC(=O)[C@H]3CC[C@H](NCc4cc5c(cc4N)OCO5)CC3)c2n1 [Example 24, Trans-4-[(6-Amino-benzo[1,3]dioxol-5-ylmethyl)-amino]-cyclohexanecarboxylic acid (6-methoxy-[1,5]naphthyridin-4-yl)-amide dioxalate salt] | ≤ 16 µg/mL
COc1ccc2nccc(NC(=O)[C@H]3CC[C@H](NCc4ccc5scnc5c4)CC3)c2n1 [Example 25, Trans-4-[(Benzothiazol-5-ylmethyl)-amino]cyclohexanecarboxylic acid(6-methoxy-[1,5]naphthyridine-4-yl)amide oxalate salt] | ≤ 64 µg/mL
COc1ccc2nccc(NC(=O)[C@H]3CC[C@H](NCc4cc(=O)n5ccccc5n4)CC3)c2n1 [Example 26, Trans-4-[(4-Oxo-4 H pyrido[1,2-a]pyrimidin-2-ylmethyl)-amino]-cyclohexanecarboxylic acid (6-methoxy-[1,5]naphthyridin-4-yl)-amide oxalate salt] | ≤ 16 µg/mL
COc1ccc2nccc(C(=O)C[C@H]3CC[C@H](NCc4ccc5c(c4)OCCO5)CC3)c2c1 [Example 27, Trans-2-{4-[(2,3-Dihydro-benzo[1,4]dioxin-6-ylmethyl)-amino]-cyclohexyl}-1-(6-methoxy-quinolin-4-yl)-ethanone oxalate salt] | ≤ 64 µg/mL
NCCCOc1ccc2nccc(NC(=O)[C@H]3CC[C@H](NCc4ccc5c(c4)OCCO5)CC3)c2n1 [Example 29, Trans-4-[(2,3-Dihydro-benzo[1,4]dioxin-6-ylmethyl)-amino]-cyclohexanecarboxylic acid [6-(3-amino-propoxy)-[1,5]naphthyridin-4-yl]-amide dioxalate] | ≤ 16 µg/mL
COc1cc(F)c2nccc(NC(=O)[C@H]3CC[C@H](NCc4ccc5c(c4)NC(=O)CS5)CC3)c2c1 [Example 30, Trans-4-[(3-Oxo-3,4-dihydro-2-H-benzo[1,4]thiazin-6-ylmethyl)amino]-cyclohexanecarboxylic acid (8-fluoro-6-methoxy-quinolin-4-yl)-amide oxalate] | ≤ 4 µg/mL
COc1ccc2nccc(NC(=O)[C@H]3CC[C@H](NCc4ccc5c(n4)NC(=O)CO5)CC3)c2n1 [Example 31, Trans-4-[(3-Oxo-3,4-dihydro-2H-pyrido[3,2-b][1,4]oxazin-6-ylmethyl)-amino]-cyclohexanecarboxylic acid (6-methoxy-[1,5]naphthyridin-4-yl)-amide oxalate] | ≤ 4 µg/mL
COc1ccc2nccc(NC(=O)[C@H]3CC[C@H](NCc4cnc5snnc5c4)CC3)c2n1 [Example 32, Trans-4-[([1,2,3]Thiadiazolo[5,4-b]pyridin-6-ylmethyl)-amino]-cyclohexanecarboxylic acid (6-methoxy-[1,5]naphthyridin-4-yl)-amide oxalate] | ≤ 4 µg/mL
COc1ccc2nccc(NC(=O)[C@H]3CC[C@H](NCc4cc5c(cc4F)SCC(=O)N5)CC3)c2n1 [Example 34, Trans-4-[(7-Fluoro-3-oxo-3,4-dihydro-2H-benzo[1,4]thiazin-6-ylmethyl)-amino]-cyclohexanecarboxylic acid (6-methoxy-[1,5]naphthyridin-4-yl)-amide oxalate salt] | ≤ 4 µg/mL
COc1ccc2nccc(NC(=O)[C@H]3CC[C@H](NCc4cc5c(c([N+](=O)[O-])c4)OCC(=O)N5)CC3)c2n1 [Example 35, Trans-4-[(8-Nitro-3-oxo-3,4-dihydro-2H-benzo[1,4]oxazin-6-ylmethyl)-amino]-cyclohexanecarboxylic Acid (6-methoxy)-[1,5]naphthyridin-4-yl)-amide Oxalate] | ≤ 4 µg/mL
COc1ccc2nccc(NC(=O)[C@H]3CC[C@H](NCc4cc(N)c5c(c4)NC(=O)CO5)CC3)c2n1 [Example 36, Trans-4-[(8-Amino-3-oxo-3,4-dihydro-2H-benzo[1,4]oxazin-6-ylmethyl)-amino]-cyclohexanecarboxylic acid (6-methoxy)-[1,5]naphthyridin-4-yl)-amide Oxalate] | ≤ 64 µg/mL
COc1ccc2nccc(NC(=O)[C@]3(O)CC[C@@H](NCc4ccc5c(c4)NC(=O)CS5)CC3)c2n1 [Example 300, 1-Hydroxy-t-4-[(3-oxo-3,4-dihydro-2H-benzo[1,4]thiazin-6-ylmethyl)-amino]-r-cyclohexanecarboxylic Acid (6-methoxy-[1,5]naphthyridin-4-yl)-amide Dihydrochloride] | ≤ 4 µg/mL
COc1ccc2nccc(NC(=O)[C@]3(O)CC[C@@H](NCc4ccc5c(n4)NC(=O)CS5)CC3)c2n1 [Example 301, 1-Hydroxy-t-4-[(3-oxo-3,4-dihydro-2H-pyrido[3,2-b][1,4]thiazin-6-ylmethyl)-amino]-r-cyclohexanecarboxylic Acid (6-methoxy-[1,5]naphthyridin-4-yl)-amide Dihydrochloride] | ≤ 4 µg/mL
COc1ccc2nccc(NC(=O)[C@]3(O)CC[C@@H](NCc4cc5c(cn4)SCC(=O)N5)CC3)c2n1 [Example 302, 1-Hydroxy-t-4-[(2-oxo-2,3-dihydro-1H-pyrido[3,4-b][1,4]thiazin-7-ylmethyl)-amino]-r-cyclohexanecarboxylic Acid (6-methoxy-[1,5]naphthyridin-4-yl)-amide Dihydrochloride] | ≤ 4 µg/mL
COc1ccc2nccc(NC(=O)[C@]3(O)CC[C@@H](NCc4cnc5c(c4)NC(=O)CS5)CC3)c2n1 [Example 303, 1-Hydroxy-t-4-[(2-oxo-2,3-dihydro-1H-pyrido[2,3-b][1,4]thiazin-7-ylmethyl)-amino]-r-cyclohexanecarboxylic Acid (6-methoxy-[1,5]naphthyridin-4-yl)-amide Dihydrochloride] | ≤ 4 µg/mL
COc1ccc2nccc(NC(=O)[C@]3(O)CC[C@@H](NCc4nc5c(cc4Br)SCC(=O)N5)CC3)c2n1 [Example 304, 1-Hydroxy-t-4-[(7-bromo-3-oxo-3,4-dihydro-2H-pyrido[3,2-b][1,4]thiazin-6-ylmethyl)-amino]-r-cyclohexanecarboxylic Acid (6-methoxy-[1,5]naphthyridin-4-yl)-amide Dihydrochloride] | ≤ 4 µg/mL
COc1ccc2nccc(NC(=O)[C@]3(O)CC[C@@H](NCc4ccc5c(n4)NC(=O)CO5)CC3)c2n1 [Example 305, 1-Hydroxy-t-4-[(3-oxo-3,4-dihydro-2H-pyrido[3,2-b][1,4]oxazin-6-ylmethyl)-amino]-r-cyclohexanecarboxylic Acid (6-methoxy-[1,5]naphthyridin-4-yl)-amide Dihydrochloride] | ≤ 4 µg/mL
COc1cc(F)c2nccc(NC(=O)[C@]3(O)CC[C@@H](NCc4ccc5c(n4)NC(=O)CS5)CC3)c2c1 [Example 390, 1-Hydroxy-t-4-[(3-oxo-3,4-dihydro-2H-pyrido[3,2-b][1,4]thiazin-6-ylmethyl)-amino-r-cyclohexanecarboxylic acid (8-fluoro-6-methoxy-quinolin-4-yl)-amidedihydrochloride] | ≤ 4 µg/mL
COc1ccc2nccc(NC(=O)[C@]3(O)CC[C@@H](NCc4ccc5c(n4)NC(=O)CS5)CC3)c2c1 [Example 391, 1-Hydroxy-t-4-[(3-oxo-3,4-dihydro-2H-pyrido[3,2-b][1,4]thiazin-6-ylmethyl)-amino-r-cyclohexanecarboxylic acid (6-methoxy-quinolin-4-yl)-amidedihydrochloride] | ≤ 4 µg/mL
